Results published in the supplement of paper PMC7287046.

How the values were obtained:
Conditions in all cases: exposure time: 72 h
[1] = system: U251; experiment: Chou-Talalay combination index (dimensionless); higher = less synergy (more antagonism)
Description: (§1)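 Glioma cell lines were treated for 72 h with a 6x6 matrix of two drugs, each in twofold dilutions with the top dose at the single-drug IC50. Viability was read by CellTiter-Glo and normalised to DMSO controls, in triplicate. The Chou-Talalay combination index was computed by the median effect principle; CI < 0.8 means synergy.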

[2] = system: SF539; experiment: as above
Description: as §1

[3] = system: SNB75; experiment: as above
Description: as §1

[4] = system: KNS42; experiment: as above
Description: as §1

[5] = system: U118; experiment: as above
Description: as §1

[6] = system: AM38; experiment: as above
Description: as §1

[7] = system: T98; experiment: as above
Description: as §1

[8] = system: SF268; experiment: as above
Description: as §1

[9] = system: U87; experiment: as above
Description: as §1

[10] = system: U251; experiment: Bliss synergy score (Combenefit); higher = more synergy; extreme values may be limits of the assay
Description: (§2)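 The same 6x6 dose matrices of drug pairs on glioma cell lines (72 h, CellTiter-Glo viability normalised to DMSO, triplicate) were scored with Combenefit. The Loewe, Bliss and HSA synergy scores are given; paper thresholds are Loewe 7.8 and Bliss 2.5.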

[11] = system: SF539; experiment: as above
Description: as §2

[12] = system: T98G; experiment: as above
Description: as §2

[13] = system: SNB75; experiment: as above
Description: as §2

[14] = system: U118; experiment: as above
Description: as §2

[15] = system: AM-38; experiment: as above
Description: as §2

[16] = system: KNS-42; experiment: as above
Description: as §2

[17] = system: SF268; experiment: as above
Description: as §2

[18] = system: U87; experiment: as above
Description: as §2

[19] = system: U251; experiment: Loewe synergy score (Combenefit); higher = more synergy; extreme values may be limits of the assay
Description: as §2

[20] = system: SF539; experiment: as above
Description: as §2

[21] = system: T98G; experiment: as above
Description: as §2

[22] = system: SNB75; experiment: as above
Description: as §2

[23] = system: U118; experiment: as above
Description: as §2

[24] = system: AM-38; experiment: as above
Description: as §2

[25] = system: KNS-42; experiment: as above
Description: as §2

[26] = system: SF268; experiment: as above
Description: as §2

[27] = system: U87; experiment: as above
Description: as §2

[28] = system: U251; experiment: HSA synergy score (Combenefit); higher = more synergy
Description: as §2

[29] = system: SF539; experiment: as above
Description: as §2

[30] = system: T98G; experiment: as above
Description: as §2

[31] = system: SNB75; experiment: as above
Description: as §2

[32] = system: U118; experiment: as above
Description: as §2

[33] = system: AM-38; experiment: as above
Description: as §2

[34] = system: KNS-42; experiment: as above
Description: as §2

[35] = system: SF268; experiment: as above
Description: as §2

[36] = system: U87; experiment: as above
Description: as §2

SMILES	Chou-Talalay combination index [1]	Chou-Talalay combination index [2]	Chou-Talalay combination index [3]	Chou-Talalay combination index [4]	Chou-Talalay combination index [5]	Chou-Talalay combination index [6]	Chou-Talalay combination index [7]	Chou-Talalay combination index [8]	Chou-Talalay combination index [9]	Bliss synergy score [10]	Bliss synergy score [11]	Bliss synergy score [12]	Bliss synergy score [13]	Bliss synergy score [14]	Bliss synergy score [15]	Bliss synergy score [16]	Bliss synergy score [17]	Bliss synergy score [18]	Loewe synergy score [19]	Loewe synergy score [20]	Loewe synergy score [21]	Loewe synergy score [22]	Loewe synergy score [23]	Loewe synergy score [24]	Loewe synergy score [25]	Loewe synergy score [26]	Loewe synergy score [27]	HSA synergy score [28]	HSA synergy score [29]	HSA synergy score [30]	HSA synergy score [31]	HSA synergy score [32]	HSA synergy score [33]	HSA synergy score [34]	HSA synergy score [35]	HSA synergy score [36]
CC(=O)O[C@@]12CO[C@@H]1C[C@H](O)[C@@]1(C)C(=O)[C@H](O)C3=C(C)[C@@H](OC(=O)[C@H](O)[C@@H](NC(=O)OC(C)(C)C)c4ccccc4)C[C@@](O)([C@@H](OC(=O)c4ccccc4)[C@H]21)C3(C)C [Docetaxel] + O=c1[nH]c2ccccc2n1C1CCN(Cc2ccc(-c3[nH]c4cc5ncnc5cc4nc3-c3ccccc3)cc2)CC1 [Akt inhibitor VIII]	0.933	0.939	0.796	0.838	0.9	0.894	0.84	0.885	0.625	0.156	0.217	0	0.989	5.46	0.132	1.6	1.32	1.56	0	1.09	0	0.96	3.76	5.53	10.8	3.03	2.83	0.629	2.57	0	6.81	8.23	11	15.2	11.6	4.37
CCCCCCCCCCCC1=C(O)C(=O)C=C(O)C1=O [Embelin] + N#CC(c1ccnc(NCCc2cccnc2)n1)c1nc2ccccc2s1 [AS601245]	0.88	0.84	0.365	0.78	0.639	0.867	0.365	0.923	0.0258	1.11	0.103	6.12	0.833	2.98	0.346	7.8	1.91	9.51	1.11	0.787	6.59	0.557	4.39	0	2.73	0.00767	0.927	1.11	1.24	11.9	2.04	4.61	1.14	12.6	5.6	10.3
CCCCCCCCCCCC1=C(O)C(=O)C=C(O)C1=O [Embelin] + O=c1[nH]c2ccccc2n1C1CCN(Cc2ccc(-c3[nH]c4cc5ncnc5cc4nc3-c3ccccc3)cc2)CC1 [Akt inhibitor VIII]	0.839	1.03	0.773	0.589	0.946	0.773	0.226	0.946	0.641	0.813	0.0542	1.2	1.95	1.02	1.12	10.1	2.64	3.16	0.813	0.853	3.51	1.11	1.18	0.351	21.4	1.14	1.72	0.813	2.02	5.06	5.56	2.72	2.45	21.8	6.9	3.6
C#Cc1cccc(Nc2ncnc3cc(OCCOC)c(OCCOC)cc23)c1 [Erlotinib] + CCCCCCCCCCCC1=C(O)C(=O)C=C(O)C1=O [Embelin]	0.632	0.728	0.836	0.797	0.853	1.08	0.961	0.795	1.14	10.1	2.46	0	0.771	0.526	0	5.81	0.32	0	10.4	1.08	0.68	1.7	2.33	0	5.93	1.59	0	14.6	8.08	1.02	6.85	2.42	0	10.4	4.82	0
C#Cc1cccc(Nc2ncnc3cc(OCCOC)c(OCCOC)cc23)c1 [Erlotinib] + N#CC(c1ccnc(NCCc2cccnc2)n1)c1nc2ccccc2s1 [AS601245]	0.946	1.01	1.07	0.914	1.02	1.25	0.621	0.948	3	0	0.186	0.855	0	0	0	0.447	0.0526	0	2.04	0.448	3.11	0.0161	2.58	0	1.56	0.12	0	3.14	2.83	3.77	1.2	3.12	0	2.81	2.63	0
C#Cc1cccc(Nc2ncnc3cc(OCCOC)c(OCCOC)cc23)c1 [Erlotinib] + O=c1[nH]c2ccccc2n1C1CCN(Cc2ccc(-c3[nH]c4cc5ncnc5cc4nc3-c3ccccc3)cc2)CC1 [Akt inhibitor VIII]	0.526	0.906	0.763	0.754	0.807	0.914	0.775	0.97	1.26	12.6	0.771	0.127	10.2	4.68	0	7.67	1.25	0	10.4	7.22	1.87	4.44	7.49	0	12.3	3.87	0	13.6	9.63	6.87	13.2	17	0	14	10.1	0.0775
Nc1ccn([C@@H]2O[C@H](CO)[C@@H](O)C2(F)F)c(=O)n1 [Gemcitabine] + C=CCc1cccc(/C=N/NC(=O)CN2CCN(Cc3ccccc3)CC2)c1O [PAC-1]	0.722	0.863	0.978	0.675	0.999	1	0.935	0.965	1.06	0.174	0.236	0.518	0.278	0	0	0.716	0.0746	0	0.777	0.062	0.986	0.834	0	0.966	21.9	0.48	0	1.09	3.14	3.73	5.49	1.58	0.966	22.7	3.55	0
Nc1ccn([C@@H]2O[C@H](CO)[C@@H](O)C2(F)F)c(=O)n1 [Gemcitabine] + CCOc1nc(NC(=O)Cc2cc(OC)ccc2OC)cc(N)c1C#N [JNK inhibitor VIII]	1.16	0.933	0.913	0.946	1.03	1.14	0.958	1.03	0.631	0	0.139	0.133	0.369	0	0	0.163	0.306	5.17	0	0.162	0.133	2.33	0.043	0	0.883	0.121	22.2	0	2.34	0.133	5.13	0.0469	0	0.883	0.909	22.2
Nc1ccn([C@@H]2O[C@H](CO)[C@@H](O)C2(F)F)c(=O)n1 [Gemcitabine] + CO[C@H]1C[C@@H]2CC[C@@H](C)[C@@](O)(O2)C(=O)C(=O)N2CCCC[C@H]2C(=O)O[C@H]([C@H](C)C[C@@H]2CC[C@@H](O)[C@H](OC)C2)CC(=O)[C@H](C)/C=C(\C)[C@@H](O)[C@@H](OC)C(=O)[C@H](C)C[C@H](C)/C=C/C=C/C=C/1C [Rapamycin]	0.677	0.669	0.95	1.04	0.654	0.998	1.13	0.786	0.683	0.62	4.47	0	1.41	2.62	0.0506	0	6.03	1.89	4.63	16.9	1.27	4.52	22	0.0506	0.0119	18.1	10	4.63	18.2	1.52	4.52	23	0.0506	0.15	18.5	10
